Among the test systems are Escherichia coli J2210; Escherichia coli BW25113; Escherichia coli MC1041; Escherichia coli JJ2489; Escherichia coli JW0013; Escherichia coli; Escherichia coli O157:H7; Escherichia coli MC1061; Escherichia coli UB1005; Escherichia coli JJ2487.
Test in all cases: ≥ marks a high value that may be exact or a test limit, other limits are often not marked, values filed in µg/mL are converted to µM
The subject of assay [1] is Salmonella typhimurium KCTC 1926.
Assay [2] concerns Pseudomonas aeruginosa ATCC 15692.
In assay [3] the test system is Listeria monocytogenes KCTC 19111.
Assay [4] relates to Staphylococcus aureus ATCC 25923.
Assay [5] deals with Staphylococcus epidermidis KCTC 1917.
Assay [6] relates to Escherichia coli ATCC 25922.
Assay [7] deals with Acinetobacter baumannii MTCC 9829.
In assay [8] the test system is Klebsiella aerogenes MTCC 111.
For assay [9], the system named is Salmonella enterica subsp. enterica serovar Typhimurium ATCC 14028.
The subject of assay [10] is Bordetella bronchiseptica MTCC 6837.
Assay [11] relates to Vibrio cholerae MTCC 3904.
The test system of assay [12] is Alkalihalobacillus alcalophilus MTCC 860.
In assay [13] the test system is Alcaligenes faecalis MTCC 1937.
Assay [14] has as its system Klebsiella pneumoniae MTCC 7407.
The test system of assay [15] is Pluralibacter gergoviae MTCC 3826.
Assay [16] relates to Shigella flexneri MTCC 1457.
Assay [17] concerns Corynebacterium glutamicum MTCC 2679.
Assay [18] deals with Citrobacter freundii MTCC 1658.
Assay [19] relates to Staphylococcus aureus MTCC 3160.
Assay [20] relates to Escherichia coli K12 MG1655.
Assay [21] has as its system Proteus mirabilis MTCC 3158.
The test system of assay [22] is Stenotrophomonas maltophilia MTCC 1890.
For assay [23], the system named is Klebsiella oxytoca MTCC 2275.
In assay [24] the test system is Proteus vulgaris MTCC 1771.
Assay [25] has as its system Haemophilus influenzae MTCC 621.
Assay [26] concerns Salmonella enterica MTCC 9844.
Assay [27] concerns Enterococcus faecalis MTCC 439.
Assay [28] concerns Staphylococcus haemolyticus MTCC 3383.
The subject of assay [29] is Citrobacter koseri MTCC 1657.
Assay [30] concerns Pseudomonas aeruginosa MTCC 3542.
In assay [31] the test system is Shigella boydii MTCC 11947.
Assay [32] concerns Salmonella enterica serovar Tennessee.
Assay [33] deals with Escherichia coli JW0368 ΔsbmA.
The test system of assay [34] is Salmonella enterica subsp. enterica serovar Infantis.
For assay [35], the system named is Salmonella typhimurium SL1344.
For assay [36], the system named is Salmonella enterica subsp. enterica serovar Enteritidis MH91989.
For assay [37], the system named is Salmonella enterica subsp. enterica serovar Newport.
Assay [38] has as its system Escherichia coli JW2778 ΔygdD.
Assay [39] has as its system Pseudomonas aeruginosa PAO1.

Values after ≈ are worked out from the molar mass of the structure shown. Values joined by “and” are separate entries in the source; they are usually repeats but may differ in a detail not shown here. Identical values can stand only once.

`NCCCC[C@H](NC(=O)[C@H](Cc1ccc(O)cc1)NC(=O)[C@H](Cc1c[nH]c2ccccc12)NC(=O)[C@H](CCCCN)NC(=O)[C@H](CCCCN)NC(=O)[C@H](Cc1ccc(O)cc1)NC(=O)[C@H](Cc1c[nH]c2ccccc12)NC(=O)[C@@H](N)CCCCN)C(N)=O` [KWYKKWYK]: the MIC in assay [1] was found to be 8 µM (≈ 9.83 µg/mL); in assay [2], 8 µM (≈ 9.83 µg/mL); in assay [3], 8 µM (≈ 9.83 µg/mL); in assay [4], 64 µM (≈ 78.6 µg/mL); in assay [5], 8 µM (≈ 9.83 µg/mL); in assay [6], 4 µM (≈ 4.91 µg/mL).
As for `CSCC[C@H](NC(=O)[C@H](CCCN=C(N)N)NC(=O)[C@H](Cc1cnc[nH]1)NC(=O)[C@H](Cc1c[nH]c2ccccc12)NC(=O)[C@H](CCCN=C(N)N)NC(=O)CNC(=O)[C@H](Cc1c[nH]c2ccccc12)NC(=O)[C@H](CCCN=C(N)N)NC(=O)[C@@H](N)CCCN=C(N)N)C(=O)N[C@@H](CCCN=C(N)N)C(=O)N[C@@H](CCCN=C(N)N)C(=O)N[C@@H](CCCN=C(N)N)C(=O)NCC(=O)N[C@@H](CCCN=C(N)N)C(=O)O` [RRWGRWHRMRRRGR], the MIC is at least 63.3 µM in assay [7]; at least 63.3 µM in [8]; above 63.3 µM in assay [9]; at least 63.3 µM in [10]; at least 63.3 µM in assay [11]; 15.8 µM (≈ 32 µg/mL) in [12]. Besides, the MIC in assay [13] is at least 63.3 µM; in [14], at least 63.3 µM; in assay [15], at least 63.3 µM; in [16], 31.6 µM (≈ 64 µg/mL); in assay [17] it was 1.98 µM (≈ 4 µg/mL); in assay [18], at least 63.3 µM. Besides, the MIC in assay [19] was at least 63.3 µM; in assay [20], at least 63.3 µM; in assay [21], at least 63.3 µM; in assay [22], at least 63.3 µM; in assay [23] it was 31.6 µM (≈ 64 µg/mL); in [24], at least 63.3 µM. For the same compound, the MIC in assay [25] is at least 63.3 µM; in assay [26], at least 63.3 µM; in assay [27] it was at least 63.3 µM; in [28], 1.98 µM (≈ 4 µg/mL); in [29] it was 7.91 µM (≈ 16 µg/mL); in [30], at least 63.3 µM. The compound further gave an MIC in assay [31] of 31.6 µM (≈ 64 µg/mL).
In the case of `CC[C@H](C)[C@H](NC(=O)[C@@H]1CCCN1C(=O)[C@H](CCCCN)NC(=O)[C@@H]1CCCN1C(=O)[C@@H]1CCCN1C(=O)[C@@H](NC(=O)[C@@H]1CCCN1C(=O)[C@H](CCCN=C(N)N)NC(=O)[C@@H]1CCCN1C(=O)[C@H](CCCCN)NC(=O)[C@H](Cc1ccc(O)cc1)NC(=O)[C@H](CO)NC(=O)CNC(=O)[C@H](CCCCN)NC(=O)[C@H](CC(=O)O)NC(=O)[C@@H](N)C(C)C)[C@@H](C)O)C(=O)N[C@@H](Cc1ccc(O)cc1)C(=O)N[C@@H](CC(N)=O)C(=O)N[C@@H](CCCN=C(N)N)C(=O)N[C@@H](CC(N)=O)C(=O)O` [VDKGSYKPRPTPPKPIYNRN], the MIC with Escherichia coli J2210 was found to be 0.208 µM (≈ 0.484 µg/mL); in assay [32], 0.3 µM (≈ 0.698 µg/mL); in [33] it was 0.834 µM (≈ 1.94 µg/mL); against Escherichia coli BW25113, 0.075 µM (≈ 0.175 µg/mL); with Escherichia coli MC1041, 0.15 µM (≈ 0.349 µg/mL); in [34], 0.3 µM (≈ 0.698 µg/mL). Further, the MIC is 0.104 µM (≈ 0.242 µg/mL) in the assay on Escherichia coli JJ2489; 0.15 µM (≈ 0.349 µg/mL) in assay [35]; 0.075 µM (≈ 0.175 µg/mL) in the assay with Escherichia coli JW0013; 0.6 µM (≈ 1.4 µg/mL) in [36]; 0.075 µM (≈ 0.175 µg/mL) in [37]; 0.197 µM and 0.3 µM in the assay with Escherichia coli. In assay [38], this compound returned an MIC of 0.208 µM (≈ 0.484 µg/mL).
Turning to `CC[C@H](C)[C@H](NC(=O)[C@H](CCCN=C(N)N)NC(=O)[C@H](CCCN=C(N)N)NC(=O)[C@@H]1CCCN1C(=O)[C@@H]1CCCN1C(=O)[C@H](CCCN=C(N)N)NC(=O)[C@@H]1CCCN1C(=O)[C@H](CCCN=C(N)N)NC(=O)[C@@H]1CCCN1C(=O)[C@H](CC(C)C)NC(=O)[C@H](Cc1ccc(O)cc1)NC(=O)[C@@H]1CCCN1C(=O)[C@H](CCCCN)NC(=O)[C@H](CCCCN)NC(=O)[C@H](CC(=O)O)NC(=O)[C@@H](N)C(C)C)C(=O)N[C@@H](Cc1ccc(O)cc1)C(=O)N[C@@H](CC(N)=O)C(=O)N[C@@H](CCCN=C(N)N)C(N)=O` [VDKKPYLPRPRPPRRIYNR], the MIC against Escherichia coli J2210 was 0.161 µM (≈ 0.39 µg/mL); in assay [39], 13.2 µM (≈ 32 µg/mL); with Escherichia coli O157:H7, 0.991 µM (≈ 2.4 µg/mL); in the assay on Escherichia coli MC1061 it was 0.124 µM (≈ 0.3 µg/mL); in assay [4], 9.34 µM (≈ 22.6 µg/mL); in assay [35], 0.248 µM (≈ 0.6 µg/mL). Besides, the MIC against Escherichia coli JW0013 is 0.248 µM (≈ 0.6 µg/mL); in assay [36] it was 0.248 µM (≈ 0.6 µg/mL); in the assay on Escherichia coli UB1005, 1.03 µM (≈ 2.5 µg/mL); against Escherichia coli JJ2487, 0.248 µM (≈ 0.6 µg/mL).

(Values after DBAASP.)
